Laboratory results from the NIST ThermoML archive (doi:10.1016/j.jct.2013.11.036).
± gives the expanded uncertainty stated by the source.

Experiment: mn = molality of the nth substance listed, in mol/kg
Details: Liquid

CCCO [propan-1-ol] + O
mass density (292.05 K, 101 kPa, Pycnometric method, m1 = 0.869): 991.42 ± 1 kg/m3
mass density (293.45 K, 101 kPa, Pycnometric method, m1 = 2.936): 980.4 ± 1 kg/m3
mass density (294.85 K, 101 kPa, Pycnometric method, m1 = 56.35): 851.23 ± 0.88 kg/m3
mass density (295.15 K, 101 kPa, Pycnometric method, m1 = 0.869): 990.4 ± 1 kg/m3
mass density (298.15 K, 101 kPa, Pycnometric method, m1 = 0.869): 989.5 ± 1 kg/m3
mass density (298.15 K, 101 kPa, Pycnometric method, m1 = 2.936): 978.54 ± 1 kg/m3
mass density (298.15 K, 5000 kPa, Constant-volume piezometry, m1 = 0.869): 990.5 ± 1.2 kg/m3
mass density (298.15 K, 5000 kPa, Constant-volume piezometry, m1 = 2.465): 980.7 ± 1.2 kg/m3
mass density (298.15 K, 10000 kPa, Constant-volume piezometry, m1 = 0.869): 992.6 ± 1.2 kg/m3
mass density (298.15 K, 10000 kPa, Constant-volume piezometry, m1 = 2.465): 982.7 ± 1.2 kg/m3
mass density (298.15 K, 20000 kPa, Constant-volume piezometry, m1 = 0.869): 996.7 ± 1.2 kg/m3
mass density (298.15 K, 20000 kPa, Constant-volume piezometry, m1 = 2.465): 986.6 ± 1.2 kg/m3
mass density (298.15 K, 30000 kPa, Constant-volume piezometry, m1 = 0.869): 1000.6 ± 1.2 kg/m3
mass density (298.15 K, 30000 kPa, Constant-volume piezometry, m1 = 2.465): 990.3 ± 1.2 kg/m3
mass density (298.15 K, 40000 kPa, Constant-volume piezometry, m1 = 0.869): 1004.4 ± 1.3 kg/m3
mass density (298.15 K, 40000 kPa, Constant-volume piezometry, m1 = 2.465): 993.8 ± 1.2 kg/m3
mass density (302.13 K, 2844 kPa, Constant-volume piezometry, m1 = 14.38): 910.6 ± 1.1 kg/m3
mass density (302.13 K, 7747 kPa, Constant-volume piezometry, m1 = 14.38): 913.1 ± 1.1 kg/m3
mass density (302.13 K, 13631 kPa, Constant-volume piezometry, m1 = 14.38): 915.8 ± 1.1 kg/m3
mass density (302.8 K, 101 kPa, Pycnometric method, m1 = 2.531): 974.74 ± 1 kg/m3
mass density (302.8 K, 101 kPa, Pycnometric method, m1 = 7.407): 941.25 ± 0.97 kg/m3
mass density (302.8 K, 101 kPa, Pycnometric method, m1 = 14.38): 908.75 ± 0.94 kg/m3
mass density (303.15 K, 5000 kPa, Constant-volume piezometry, m1 = 0.869): 988.8 ± 1.2 kg/m3
mass density (303.15 K, 5000 kPa, Constant-volume piezometry, m1 = 2.465): 978.4 ± 1.2 kg/m3
mass density (303.15 K, 10000 kPa, Constant-volume piezometry, m1 = 0.869): 990.9 ± 1.2 kg/m3
mass density (303.15 K, 10000 kPa, Constant-volume piezometry, m1 = 2.465): 980.5 ± 1.2 kg/m3
mass density (303.15 K, 20000 kPa, Constant-volume piezometry, m1 = 0.869): 995 ± 1.2 kg/m3
mass density (303.15 K, 20000 kPa, Constant-volume piezometry, m1 = 2.465): 984.4 ± 1.2 kg/m3
mass density (303.15 K, 30000 kPa, Constant-volume piezometry, m1 = 0.869): 998.9 ± 1.2 kg/m3
mass density (303.15 K, 30000 kPa, Constant-volume piezometry, m1 = 2.465): 988 ± 1.2 kg/m3
mass density (303.15 K, 40000 kPa, Constant-volume piezometry, m1 = 0.869): 1002.7 ± 1.3 kg/m3
mass density (303.15 K, 40000 kPa, Constant-volume piezometry, m1 = 2.465): 991.6 ± 1.2 kg/m3
mass density (303.2 K, 3334 kPa, Constant-volume piezometry, m1 = 2.531): 975.9 ± 1.2 kg/m3
mass density (303.2 K, 7708 kPa, Constant-volume piezometry, m1 = 2.531): 977.7 ± 1.2 kg/m3
mass density (304.65 K, 101 kPa, Pycnometric method, m1 = 2.936): 975.69 ± 1 kg/m3
mass density (306 K, 101 kPa, Pycnometric method, m1 = 56.35): 842.18 ± 0.87 kg/m3
mass density (307.99 K, 2942 kPa, Constant-volume piezometry, m1 = 56.35): 872.9 ± 1.1 kg/m3
mass density (307.99 K, 14220 kPa, Constant-volume piezometry, m1 = 56.35): 880.4 ± 1.1 kg/m3
mass density (308.55 K, 101 kPa, Pycnometric method, m1 = 0.869): 986.52 ± 1 kg/m3
mass density (312.07 K, 2844 kPa, Constant-volume piezometry, m1 = 7.407): 936.5 ± 1.1 kg/m3
mass density (312.07 K, 6865 kPa, Constant-volume piezometry, m1 = 7.407): 938.7 ± 1.1 kg/m3
mass density (312.07 K, 12160 kPa, Constant-volume piezometry, m1 = 7.407): 941.1 ± 1.1 kg/m3
mass density (312.65 K, 101 kPa, Pycnometric method, m1 = 2.531): 969.82 ± 1 kg/m3
mass density (312.65 K, 101 kPa, Pycnometric method, m1 = 7.407): 934.48 ± 0.97 kg/m3
mass density (312.65 K, 101 kPa, Pycnometric method, m1 = 14.38): 901.37 ± 0.93 kg/m3
mass density (313.75 K, 101 kPa, Pycnometric method, m1 = 2.936): 971.27 ± 1 kg/m3
mass density (320.75 K, 101 kPa, Pycnometric method, m1 = 56.35): 829.47 ± 0.87 kg/m3
mass density (322.35 K, 101 kPa, Pycnometric method, m1 = 2.936): 966.49 ± 1 kg/m3
mass density (323.15 K, 5000 kPa, Constant-volume piezometry, m1 = 0.869): 980.8 ± 1.2 kg/m3
mass density (323.15 K, 5000 kPa, Constant-volume piezometry, m1 = 2.465): 968.2 ± 1.2 kg/m3
mass density (323.15 K, 10000 kPa, Constant-volume piezometry, m1 = 0.869): 982.9 ± 1.2 kg/m3
mass density (323.15 K, 10000 kPa, Constant-volume piezometry, m1 = 2.465): 970.3 ± 1.2 kg/m3
mass density (323.15 K, 20000 kPa, Constant-volume piezometry, m1 = 0.869): 986.9 ± 1.2 kg/m3
mass density (323.15 K, 20000 kPa, Constant-volume piezometry, m1 = 2.465): 974.3 ± 1.2 kg/m3
mass density (323.15 K, 30000 kPa, Constant-volume piezometry, m1 = 0.869): 990.8 ± 1.2 kg/m3
mass density (323.15 K, 30000 kPa, Constant-volume piezometry, m1 = 2.465): 978 ± 1.2 kg/m3
mass density (323.15 K, 40000 kPa, Constant-volume piezometry, m1 = 0.869): 994.5 ± 1.3 kg/m3
mass density (323.15 K, 40000 kPa, Constant-volume piezometry, m1 = 2.465): 981.6 ± 1.2 kg/m3
mass density (326.05 K, 101 kPa, Pycnometric method, m1 = 2.531): 962.17 ± 1 kg/m3
mass density (326.05 K, 101 kPa, Pycnometric method, m1 = 7.407): 924.78 ± 0.97 kg/m3
mass density (326.05 K, 101 kPa, Pycnometric method, m1 = 14.38): 890.78 ± 0.93 kg/m3
mass density (331.05 K, 101 kPa, Pycnometric method, m1 = 56.35): 820.42 ± 0.86 kg/m3
mass density (340.85 K, 101 kPa, Pycnometric method, m1 = 2.531): 952.6 ± 1 kg/m3
mass density (340.85 K, 101 kPa, Pycnometric method, m1 = 7.407): 913.42 ± 0.96 kg/m3
mass density (340.85 K, 101 kPa, Pycnometric method, m1 = 14.38): 878.68 ± 0.93 kg/m3
mass density (342.49 K, 2353 kPa, Constant-volume piezometry, m1 = 14.38): 877.9 ± 1.1 kg/m3
mass density (342.49 K, 6159 kPa, Constant-volume piezometry, m1 = 14.38): 880.3 ± 1.1 kg/m3
mass density (342.49 K, 10199 kPa, Constant-volume piezometry, m1 = 14.38): 882.7 ± 1.1 kg/m3
mass density (342.49 K, 14455 kPa, Constant-volume piezometry, m1 = 14.38): 885.4 ± 1.1 kg/m3
mass density (343.48 K, 2942 kPa, Constant-volume piezometry, m1 = 7.407): 913.7 ± 1.1 kg/m3
mass density (343.48 K, 6767 kPa, Constant-volume piezometry, m1 = 7.407): 915.8 ± 1.1 kg/m3
mass density (343.48 K, 12690 kPa, Constant-volume piezometry, m1 = 7.407): 919 ± 1.1 kg/m3
mass density (343.94 K, 2353 kPa, Constant-volume piezometry, m1 = 2.531): 950.6 ± 1.1 kg/m3
mass density (343.94 K, 6374 kPa, Constant-volume piezometry, m1 = 2.531): 952.5 ± 1.2 kg/m3
mass density (343.94 K, 10787 kPa, Constant-volume piezometry, m1 = 2.531): 954.3 ± 1.2 kg/m3
mass density (347.63 K, 3668 kPa, Constant-volume piezometry, m1 = 56.35): 838 ± 1 kg/m3
mass density (347.63 K, 10120 kPa, Constant-volume piezometry, m1 = 56.35): 843.1 ± 1 kg/m3
mass density (348.15 K, 5000 kPa, Constant-volume piezometry, m1 = 0.869): 967.9 ± 1.2 kg/m3
mass density (348.15 K, 5000 kPa, Constant-volume piezometry, m1 = 2.465): 952.7 ± 1.2 kg/m3
mass density (348.15 K, 10000 kPa, Constant-volume piezometry, m1 = 0.869): 970 ± 1.2 kg/m3
mass density (348.15 K, 10000 kPa, Constant-volume piezometry, m1 = 2.465): 954.9 ± 1.2 kg/m3
mass density (348.15 K, 20000 kPa, Constant-volume piezometry, m1 = 0.869): 974.1 ± 1.2 kg/m3
mass density (348.15 K, 20000 kPa, Constant-volume piezometry, m1 = 2.465): 959.1 ± 1.2 kg/m3
mass density (348.15 K, 30000 kPa, Constant-volume piezometry, m1 = 0.869): 978 ± 1.2 kg/m3
mass density (348.15 K, 30000 kPa, Constant-volume piezometry, m1 = 2.465): 963.1 ± 1.2 kg/m3
mass density (348.15 K, 40000 kPa, Constant-volume piezometry, m1 = 0.869): 981.8 ± 1.2 kg/m3
mass density (348.15 K, 40000 kPa, Constant-volume piezometry, m1 = 2.465): 966.8 ± 1.2 kg/m3
mass density (349.85 K, 101 kPa, Pycnometric method, m1 = 2.531): 946.25 ± 1 kg/m3
mass density (349.85 K, 101 kPa, Pycnometric method, m1 = 7.407): 906.29 ± 0.96 kg/m3
mass density (349.85 K, 101 kPa, Pycnometric method, m1 = 14.38): 870.71 ± 0.93 kg/m3
mass density (352.05 K, 101 kPa, Pycnometric method, m1 = 56.35): 801.03 ± 0.86 kg/m3
mass density (373.15 K, 5000 kPa, Constant-volume piezometry, m1 = 0.869): 951.6 ± 1.2 kg/m3
mass density (373.15 K, 5000 kPa, Constant-volume piezometry, m1 = 2.465): 934.2 ± 1.1 kg/m3
mass density (373.15 K, 10000 kPa, Constant-volume piezometry, m1 = 0.869): 953.9 ± 1.2 kg/m3
mass density (373.15 K, 10000 kPa, Constant-volume piezometry, m1 = 2.465): 937 ± 1.1 kg/m3
mass density (373.15 K, 20000 kPa, Constant-volume piezometry, m1 = 0.869): 958.3 ± 1.2 kg/m3
mass density (373.15 K, 20000 kPa, Constant-volume piezometry, m1 = 2.465): 941.3 ± 1.2 kg/m3
mass density (373.15 K, 30000 kPa, Constant-volume piezometry, m1 = 0.869): 962.4 ± 1.2 kg/m3
mass density (373.15 K, 30000 kPa, Constant-volume piezometry, m1 = 2.465): 945.7 ± 1.2 kg/m3
mass density (373.15 K, 40000 kPa, Constant-volume piezometry, m1 = 0.869): 966.3 ± 1.2 kg/m3
mass density (373.15 K, 40000 kPa, Constant-volume piezometry, m1 = 2.465): 949.7 ± 1.2 kg/m3
